From the supplement of paper PMC10307832

How the values were obtained:
Assay in all cases: relative viability (nuclei count vs DMSO), 5 days (fraction); higher = more cells survive
NCI-H441 = system: NCI-H441
How it was run: (§1)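 Relative viability is defined as nuclei in treated wells over nuclei in vehicle wells. Duplicate plates were run and medians reported. Lung cancer cell lines in 1536-well plates were dosed by pin tool one day after seeding, with one drug or with a fixed anchor-drug dose plus five library-drug doses (not always all listed) in √10 steps, and nuclei were counted after 5 days.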

NCI-H838 = system: NCI-H838
How it was run: as §1

LCLC-103H = system: LCLC-103H
How it was run: as §1

NCI-H2087 = system: NCI-H2087
How it was run: as §1

NCI-H647 = system: NCI-H647
How it was run: as §1

LOU-NH91 = system: LOU-NH91
How it was run: as §1

NCI-H650 = system: NCI-H650
How it was run: as §1

NCI-H2126 = system: NCI-H2126
How it was run: as §1

NCI-H1395 = system: NCI-H1395
How it was run: as §1

HARA = system: HARA
How it was run: as §1

HCC-44 = system: HCC-44
How it was run: as §1

201T = system: 201T
How it was run: as §1

NCI-H23 = system: NCI-H23
How it was run: as §1

EMC-BAC-2 = system: EMC-BAC-2
How it was run: as §1

NCI-H1993 = system: NCI-H1993
How it was run: as §1

NCI-H596 = system: NCI-H596
How it was run: as §1

NCI-H3122 = system: NCI-H3122
How it was run: as §1

NCI-H2347 = system: NCI-H2347
How it was run: as §1

NCI-H2023 = system: NCI-H2023
How it was run: as §1

NCI-H1666 = system: NCI-H1666
How it was run: as §1

NCI-H2009 = system: NCI-H2009
How it was run: as §1

BEN = system: BEN
How it was run: as §1

NCI-H727 = system: NCI-H727
How it was run: as §1

NC(=O)Nc1cc(-c2cccc(F)c2)sc1C(=O)N[C@H]1CCCNC1 [AZD7762] + O=C(c1cc(Cc2n[nH]c(=O)c3ccccc23)ccc1F)N1CCN(C(=O)C2CC2)CC1 [Olaparib] (partner 8 µM)
relative viability (NCI-H441; first compound 0.01 µM): 0.707 | relative viability (NCI-H441; first compound 0.03162 µM): 0.795 | relative viability (NCI-H441; first compound 0.1 µM): 0.675 | relative viability (NCI-H441; first compound 0.3162 µM): 0.555 | relative viability (NCI-H441; first compound 1 µM): 0.287 | relative viability (NCI-H838; first compound 0.01 µM): 0.86 | relative viability (NCI-H838; first compound 0.03162 µM): 0.774 | relative viability (NCI-H838; first compound 0.1 µM): 0.744 | relative viability (NCI-H838; first compound 0.3162 µM): 0.493 | relative viability (NCI-H838; first compound 1 µM): 0.169 | relative viability (LCLC-103H; first compound 0.01 µM): 0.827 | relative viability (LCLC-103H; first compound 0.03162 µM): 0.705 | relative viability (LCLC-103H; first compound 0.1 µM): 0.733 | relative viability (LCLC-103H; first compound 0.3162 µM): 0.772 | relative viability (LCLC-103H; first compound 1 µM): 0.714 | relative viability (NCI-H2087; first compound 0.01 µM): 0.712 | relative viability (NCI-H2087; first compound 0.03162 µM): 0.768 | relative viability (NCI-H2087; first compound 0.1 µM): 0.806 | relative viability (NCI-H2087; first compound 0.3162 µM): 0.858 | relative viability (NCI-H2087; first compound 1 µM): 0.583 | relative viability (NCI-H647; first compound 0.01 µM): 0.612 | relative viability (NCI-H647; first compound 0.03162 µM): 0.494 | relative viability (NCI-H647; first compound 0.1 µM): 0.238 | relative viability (NCI-H647; first compound 0.3162 µM): 0.0816 | relative viability (NCI-H647; first compound 1 µM): 0.0532 | relative viability (LOU-NH91; first compound 0.01 µM): 0.915 | relative viability (LOU-NH91; first compound 0.03162 µM): 0.914 | relative viability (LOU-NH91; first compound 0.1 µM): 0.867 | relative viability (LOU-NH91; first compound 0.3162 µM): 0.834 | relative viability (LOU-NH91; first compound 1 µM): 0.571 | relative viability (NCI-H650; first compound 0.01 µM): 0.417 | relative viability (NCI-H650; first compound 0.03162 µM): 0.49 | relative viability (NCI-H650; first compound 0.1 µM): 0.494 | relative viability (NCI-H650; first compound 0.3162 µM): 0.446 | relative viability (NCI-H650; first compound 1 µM): 0.337 | relative viability (NCI-H2126; first compound 0.01 µM): 0.948 | relative viability (NCI-H2126; first compound 0.03162 µM): 0.982 | relative viability (NCI-H2126; first compound 0.1 µM): 0.966 | relative viability (NCI-H2126; first compound 0.3162 µM): 0.941 | relative viability (NCI-H2126; first compound 1 µM): 0.885 | relative viability (NCI-H1395; first compound 0.01 µM): 0.505 | relative viability (NCI-H1395; first compound 0.03162 µM): 0.415 | relative viability (NCI-H1395; first compound 0.1 µM): 0.393 | relative viability (NCI-H1395; first compound 0.3162 µM): 0.387 | relative viability (NCI-H1395; first compound 1 µM): 0.354 | relative viability (HARA; first compound 0.01 µM): 0.768 | relative viability (HARA; first compound 0.03162 µM): 0.759 | relative viability (HARA; first compound 0.1 µM): 0.507 | relative viability (HARA; first compound 0.3162 µM): 0.301 | relative viability (HARA; first compound 1 µM): 0.229 | relative viability (HCC-44; first compound 0.01 µM): 0.986 | relative viability (HCC-44; first compound 0.03162 µM): 0.922 | relative viability (HCC-44; first compound 0.1 µM): 1.01 | relative viability (HCC-44; first compound 0.3162 µM): 0.964 | relative viability (HCC-44; first compound 1 µM): 0.954 | relative viability (201T; first compound 0.01 µM): 0.821 | relative viability (201T; first compound 0.03162 µM): 0.854 | relative viability (201T; first compound 0.1 µM): 0.885 | relative viability (201T; first compound 0.3162 µM): 0.566 | relative viability (201T; first compound 1 µM): 0.475 | relative viability (NCI-H23; first compound 0.01 µM): 0.311 | relative viability (NCI-H23; first compound 0.03162 µM): 0.287 | relative viability (NCI-H23; first compound 0.1 µM): 0.255 | relative viability (NCI-H23; first compound 0.3162 µM): 0.222 | relative viability (NCI-H23; first compound 1 µM): 0.168 | relative viability (EMC-BAC-2; first compound 0.01 µM): 0.612 | relative viability (EMC-BAC-2; first compound 0.03162 µM): 0.628 | relative viability (EMC-BAC-2; first compound 0.1 µM): 0.626 | relative viability (EMC-BAC-2; first compound 0.3162 µM): 0.64 | relative viability (EMC-BAC-2; first compound 1 µM): 0.547 | relative viability (NCI-H1993; first compound 0.01 µM): 1.18 | relative viability (NCI-H1993; first compound 0.03162 µM): 1.03 | relative viability (NCI-H1993; first compound 0.1 µM): 1.12 | relative viability (NCI-H1993; first compound 0.3162 µM): 1.42 | relative viability (NCI-H1993; first compound 1 µM): 0.922 | relative viability (NCI-H596; first compound 0.01 µM): 0.723 | relative viability (NCI-H596; first compound 0.03162 µM): 0.631 | relative viability (NCI-H596; first compound 0.1 µM): 0.609 | relative viability (NCI-H596; first compound 0.3162 µM): 0.552 | relative viability (NCI-H596; first compound 1 µM): 0.478 | relative viability (NCI-H3122; first compound 0.01 µM): 0.681 | relative viability (NCI-H3122; first compound 0.03162 µM): 0.527 | relative viability (NCI-H3122; first compound 0.1 µM): 0.588 | relative viability (NCI-H3122; first compound 0.3162 µM): 0.477 | relative viability (NCI-H3122; first compound 1 µM): 0.404 | relative viability (NCI-H2347; first compound 0.01 µM): 0.612 | relative viability (NCI-H2347; first compound 0.03162 µM): 0.656 | relative viability (NCI-H2347; first compound 0.1 µM): 0.78 | relative viability (NCI-H2347; first compound 0.3162 µM): 0.693 | relative viability (NCI-H2347; first compound 1 µM): 0.544 | relative viability (NCI-H2023; first compound 0.01 µM): 0.463 | relative viability (NCI-H2023; first compound 0.03162 µM): 0.323 | relative viability (NCI-H2023; first compound 0.1 µM): 0.171 | relative viability (NCI-H2023; first compound 0.3162 µM): 0.111 | relative viability (NCI-H2023; first compound 1 µM): 0.0963 | relative viability (NCI-H1666; first compound 0.01 µM): 0.85 | relative viability (NCI-H1666; first compound 0.03162 µM): 0.973 | relative viability (NCI-H1666; first compound 0.1 µM): 1.06 | relative viability (NCI-H1666; first compound 0.3162 µM): 0.968 | relative viability (NCI-H1666; first compound 1 µM): 0.814 | relative viability (NCI-H2009; first compound 0.01 µM): 0.719 | relative viability (NCI-H2009; first compound 0.03162 µM): 0.726 | relative viability (NCI-H2009; first compound 0.1 µM): 0.747 | relative viability (NCI-H2009; first compound 0.3162 µM): 0.521 | relative viability (NCI-H2009; first compound 1 µM): 0.34 | relative viability (BEN; first compound 0.01 µM): 1.05 | relative viability (BEN; first compound 0.03162 µM): 1.04 | relative viability (BEN; first compound 0.1 µM): 0.966 | relative viability (BEN; first compound 0.3162 µM): 1.01 | relative viability (BEN; first compound 1 µM): 0.658 | relative viability (NCI-H727; first compound 0.01 µM): 0.735 | relative viability (NCI-H727; first compound 0.03162 µM): 0.723 | relative viability (NCI-H727; first compound 0.1 µM): 0.931 | relative viability (NCI-H727; first compound 0.3162 µM): 0.717 | relative viability (NCI-H727; first compound 1 µM): 0.543
